In patent publication US20040224958A1, “Pyridopyrimidinone derivatives for treatment of neurodegenerative disease” (priority 2000, published 2004):
Read-outs that look alike come from different tables or passages of the source. Each block holds one compound with its values, some of them ahead of it.

Key:
cdk4/D = cdk4/D (Homo sapiens, UniProt P11802); experiment: Cyclin-Dependent Kinase 4 (cdk4) Assay; assay type: biochemical
Cdk5/p25 = Cdk5/p25 (Homo sapiens, UniProt Q00535); experiment: Cyclin-Dependent Kinase 5 (cdk5) Assay; assay type: biochemical
Procedure: Cyclin-Dependent Kinase 5 (cdk5) Assay
Enzyme assays for IC50 determinations and kinetic evaluation were performed in 96-well filter plates (Millipore MAPH NOB 10). […] All components except histone and ATP were added to wells, and the plate was placed on a shaker for 5 minutes. The reaction was started by adding histone and [^32P]ATP, and the plate was shaken at 30° C. for 45 minutes. The reaction was terminated by addition of 0.1 mL of 150 mM phosphoric acid. The plate was kept at 4° C. for 30 minutes to allow substrate to precipitate. The wells were then washed three times with 0.2 mL of 75 mM phosphoric acid and ^32P incorporation was determined with a beta plate counter (Wallac Inc, Gaithersburg, Md.).

cdk2/cyclinE = cdk2/cyclinE (Homo sapiens, UniProt P24941); experiment: Cyclin-Dependent Kinase Assay cdk2/cyclinE
cdk2/cyclinA = cdk2/cyclinA (Homo sapiens, UniProt P24941); experiment: Cyclin-Dependent Kinase Assay cdk2/cyclinA
cdc2/cyclinB = cdc2/cyclinB (Homo sapiens, UniProt P06493); experiment: Cyclin-Dependent Kinase Assay cdc2/cyclinB
Sequence of cdc2/cyclinB (P06493 whole entry): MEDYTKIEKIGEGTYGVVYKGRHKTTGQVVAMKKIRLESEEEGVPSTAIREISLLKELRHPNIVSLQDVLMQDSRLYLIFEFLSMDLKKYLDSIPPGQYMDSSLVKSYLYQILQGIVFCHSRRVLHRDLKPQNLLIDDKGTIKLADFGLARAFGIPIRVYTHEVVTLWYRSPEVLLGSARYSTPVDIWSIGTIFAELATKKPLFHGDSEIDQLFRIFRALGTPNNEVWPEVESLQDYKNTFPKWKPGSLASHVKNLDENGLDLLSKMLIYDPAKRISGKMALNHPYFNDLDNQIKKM
Sequence of cdc2/cyclinB (P14635 whole entry, further chain): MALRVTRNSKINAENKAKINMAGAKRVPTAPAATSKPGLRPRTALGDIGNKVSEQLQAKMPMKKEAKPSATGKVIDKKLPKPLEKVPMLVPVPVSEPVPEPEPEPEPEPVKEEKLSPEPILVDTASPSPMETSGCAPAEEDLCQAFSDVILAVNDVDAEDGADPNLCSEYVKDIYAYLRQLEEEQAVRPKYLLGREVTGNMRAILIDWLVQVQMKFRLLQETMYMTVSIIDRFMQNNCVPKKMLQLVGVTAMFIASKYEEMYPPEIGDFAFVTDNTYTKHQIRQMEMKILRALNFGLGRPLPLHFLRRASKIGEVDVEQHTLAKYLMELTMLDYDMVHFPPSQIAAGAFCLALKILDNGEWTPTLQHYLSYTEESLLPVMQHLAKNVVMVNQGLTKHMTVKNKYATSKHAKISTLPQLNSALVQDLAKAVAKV

Sequence of cdk4/D (P11802 whole entry): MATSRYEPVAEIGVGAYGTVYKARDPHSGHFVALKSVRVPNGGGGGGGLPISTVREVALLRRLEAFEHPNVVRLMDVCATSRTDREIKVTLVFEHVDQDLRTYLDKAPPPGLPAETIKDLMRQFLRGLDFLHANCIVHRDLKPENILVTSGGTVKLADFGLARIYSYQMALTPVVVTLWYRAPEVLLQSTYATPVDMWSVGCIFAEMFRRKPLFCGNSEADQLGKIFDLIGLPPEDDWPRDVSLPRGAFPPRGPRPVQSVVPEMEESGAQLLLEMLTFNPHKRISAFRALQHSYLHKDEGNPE
Sequence of cdk4/D (P24385 whole entry, further chain): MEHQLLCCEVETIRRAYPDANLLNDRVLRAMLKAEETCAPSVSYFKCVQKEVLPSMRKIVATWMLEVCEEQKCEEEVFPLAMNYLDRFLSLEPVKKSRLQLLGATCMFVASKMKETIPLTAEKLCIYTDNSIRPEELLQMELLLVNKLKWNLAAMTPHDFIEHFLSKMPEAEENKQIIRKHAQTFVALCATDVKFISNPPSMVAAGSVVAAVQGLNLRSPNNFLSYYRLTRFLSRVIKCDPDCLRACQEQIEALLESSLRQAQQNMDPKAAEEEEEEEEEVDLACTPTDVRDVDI

Compound: 8-Ethyl-2-(pyrimidin-4-ylamino)-8H-pyrido[2,3-d]pyrimidin-7-one [Example 50]
IC50 (cdk4/D; Table 1, read-out: cdk4/D IC50): 2000 nM
IC50 (Cdk5/p25; Table 1): 27 nM

Compound: O=c1ccc2cnc(Nc3ccccc3)nc2[nH]1 [Example 32, 2-Phenylamino-8H-pyrido[2,3-d]pyrimidin-7-one]
IC50 (Cdk5/p25; Table 1): 1430 nM

Compound: CN(C)CCCN1CCN(c2ccc(Nc3ncc4ccc(=O)n(C5CCCCC5)c4n3)cc2)CC1 [Example 144]
IC50 (cdk4/D; Table 1, read-out: cdk4/D IC50): 16 nM
IC50 (Cdk5/p25; Table 1): 39.4 nM
IC50 (cdk2/cyclinE; read-out: cdk2/E IC50, Table 1): 43 nM
IC50 (cdk2/cyclinA; read-out: cdk2/A IC50, Table 1): 102 nM
IC50 (cdc2/cyclinB; read-out: cdk1/B IC50, Table 1): 344 nM

Compound: CCN(CC)CCOc1ccc(Nc2ncc3ccc(=O)n(C(C)C)c3n2)cc1 [Example 59, 2-[4-(2-Diethylaminoethoxy)-phenylamino]-8-isopropyl-8H-pyrido[2,3-d]-pyrimidin-7-one]
melting point: 84 to 85 °C

Compound: 8-Isopropyl-2-(4-methoxy-phenylamino)-8H-pyrido[2,3-d]pyrimidin-7-one [Example 622]
IC50 (cdk4/D; Table 3, read-out: Cdk4 IC50): 4080 nM
IC50 (Cdk5/p25; Table 3): 30 nM
IC50 (cdk2/cyclinE; read-out: Cdk2/E IC50, Table 3): 540 nM
IC50 (cdk2/cyclinA; read-out: Cdk2/A IC50, Table 3): 392 nM

Compound: CCCCNc1ncc2ccc(=O)n(C)c2n1 [Example 64, 2-Butylamino-8-methyl-8H-pyrido[2,3-d]pyrimidin-7-one]
melting point: 146 to 147 °C

Compound: O=c1ccc2cnc(Nc3ccc(SC(F)(F)F)cc3)nc2n1C1CC2CCC1C2 (stereo not drawn) [Example 221, 8-Bicyclo[2.2.1]hept-2-yl-2-(4-trifluoromethylsuffanyl-phenylamino)-8H-pyrido[2,3-d]pyrimidin-7-one]
IC50 (cdk4/D; Table 1, read-out: cdk4/D IC50): 320 nM
IC50 (Cdk5/p25; Table 1): 349 nM
IC50 (cdk2/cyclinE; read-out: cdk2/E IC50, Table 1): 511 nM
IC50 (cdk2/cyclinA; read-out: cdk2/A IC50, Table 1): 370 nM
IC50 (cdc2/cyclinB; read-out: cdk1/B IC50, Table 1): 1120 nM

Compound: COc1ccc(Cn2c(=O)ccc3cnc(Nc4ccccc4)nc32)cc1 [Example 58, 8-(4-Methoxybenzyl)-2-phenylamino-8H-pyrido[2,3-d]pyrimidin-7-one]
melting point: 215 to 216 °C

Compound: Cn1c(=O)ccc2cnc(N)nc21 [Example 62, 2-Amino-8-methyl-8H-pyrido[2,3-d]pyrimidin-7-one]
melting point: 237 to 253 °C

Compound: CCOC(=O)N1CCC(n2c(=O)ccc3cnc(Nc4ccc(N5CCCCC5)cc4)nc32)CC1 [Example 246, 4-[7-Oxo-2-(4-piperidin-1-yl-phenylamino)-7H-pyrido[2,3-d]pyrimidin-8-yl]-piperidine-1-carboxylic acid ethyl ester]
melting point: 231 to 233 °C

Compound: CC1CN(c2ccc(Nc3ncc4ccc(=O)n(C5CC6CCC5C6)c4n3)cc2)CC(C)N1 (stereo not drawn) [Example 255]
IC50 (cdk4/D; Table 1, read-out: cdk4/D IC50): 3 nM
IC50 (Cdk5/p25; Table 1): 32.1 nM
IC50 (cdk2/cyclinE; read-out: cdk2/E IC50, Table 1): 124 nM
IC50 (cdk2/cyclinA; read-out: cdk2/A IC50, Table 1): 67.5 nM
IC50 (cdc2/cyclinB; read-out: cdk1/B IC50, Table 1): 335 nM

Compound: CCNc1nc(Nc2ccccc2)ncc1CCC(=O)OCC [Example 68, 3-(4-Ethylamino-2-phenylamino-pyrimidin-5-yl)propionic acid ethyl ester]
melting point: 106 to 107 °C

Compound: CCC(C)n1c(=O)ccc2cnc(Nc3ccccc3)nc21 (stereo not drawn) [Example 85, 8-sec-Butyl-2-phenylamino-8H-pyrido[2,3-d]pyrimidin-7-one]
melting point: 155 to 156 °C

Compound: CC(C)n1c(=O)ccc2cnc(Nc3ccc(N4CCC(CCCN5CCOCC5)CC4)cc3)nc21 [Example 260, 8-Isopropyl-2-{4-[4-(3-morpholin-4-yl-propyl)-piperidin-1-yl]-phenylamino}-8H-pyrido[2,3-d]pyrimidin-7-one]
melting point: 195 to 196 °C

Compound: O=c1ccc2cnc(Nc3ccc(N4CCCCC4)cc3)nc2n1C1CCOC1 (racemic) [Example 200, 2-(4-Piperidin-1-yl-phenylamino)-8-(tetrahydro-furan-3-yl)-8H-pyrido[2,3-d]pyrimidin-7-one]
IC50 (cdk4/D; Table 1, read-out: cdk4/D IC50): 219 nM
melting point: 181 to 182 °C
IC50 (cdk2/cyclinE; cdk2/E IC50, Table 1): 1900 nM
IC50 (cdk2/cyclinA; cdk2/A IC50, Table 1): 285 nM
IC50 (cdc2/cyclinB): 4340 nM

Compound: CCN(CC)c1ccc(Nc2ncc3ccc(=O)n(CC)c3n2)cc1 [Example 78, 2-(4-Diethylamino-phenylamino)-8-ethyl-8H-pyrido[2,3-d]pyrimidin-7-one]
melting point: 108 to 109 °C

Compound: CCNc1ncc2ccc(=O)n(-c3ccccc3)c2n1 [Example 100, 2-Ethylamino-8-phenyl-8H-pyrido[2,3-d]pyrimidin-7-one]
melting point: 193 to 195 °C

Compound: CCOC(=O)C=Cc1cnc(Nc2ccccc2)nc1N [Example 28, Ethyl 3-(4-Amino-2-phenylamino-pyrimidin-5-yl)acrylate]
IC50 (cdk4/D; Table 2, Formula II compounds, read-out: cdk4 IC50): 65000 nM
melting point: 190 to 192 °C

Next, values leading:

IC50 (cdk4/D; Table 3, read-out: Cdk4 IC50): 159 nM
IC50 (Cdk5/p25; Table 3): 8.7 nM
IC50 (cdk2/cyclinE; Cdk2/E IC50, Table 3): 200 nM
IC50 (cdk2/cyclinA; Cdk2/A IC50, Table 3): 127 nM
Compound: CCC(CC)n1c(=O)ccc2cnc(Nc3ccccc3)nc21 [R′=H, R″=H, R2=1-ethylpropyl, 8-(1-Ethylpropyl)-2-phenylamino-8H-pyrido[2,3-d]pyrimidin-7-one]

IC50 (cdk4/D; Table 1, read-out: cdk4/D IC50): 197 nM
melting point: 209 to 211 °C
IC50 (cdk2/cyclinE; cdk2/E IC50, Table 1): 53.5 nM
IC50 (cdk2/cyclinA; cdk2/A IC50, Table 1): 77.5 nM
IC50 (cdc2/cyclinB): 1820 nM
Compound: O=c1ccc2cnc(Nc3ccc(F)cc3)nc2n1C1CCCCC1 [Example 148, 8-Cyclohexyl-2-(4-fluoro-phenylamino)-8H-pyrido[2,3-d]pyrimidin-7-one]

IC50 (cdk4/D; Table 1, read-out: cdk4/D IC50): 7.5 nM
melting point: 245 to 246 °C
IC50 (cdk2/cyclinE; cdk2/E IC50, Table 1): 200 nM
IC50 (cdk2/cyclinA; cdk2/A IC50, Table 1): 73.3 nM
IC50 (cdc2/cyclinB): 599 nM
Compound: O=c1ccc2cnc(Nc3ccc(N4CCC(CCN5CCOCC5)CC4)cc3)nc2n1C1CCCCC1 [Example 258]

IC50 (cdk4/D; Table 1, read-out: cdk4/D IC50): 31000 nM
melting point: 232 to 233 °C
Compound: COC(=O)Cn1c(=O)ccc2cnc(Nc3ccccc3)nc21 [Example 36]

IC50 (cdk4/D; Table 1, read-out: cdk4/D IC50): 2800 nM
IC50 (Cdk5/p25; Table 1): 288 nM
IC50 (cdk2/cyclinE; cdk2/E IC50, Table 1): 3000 nM
IC50 (cdk2/cyclinA; cdk2/A IC50, Table 1): 996 nM
IC50 (cdc2/cyclinB): 440 nM
Compound: O=c1ccc2cnc(Nc3ccc(N4CCCCC4)cc3)nc2n1[C@H]1C[C@H]2CC[C@@H]1C2 (relative stereo) [Example 229, 8-Dicyclo[2.2.1]hept-2-yl-2-(4-piperidin-1-yl-phenylamino)-8H-pyrido[2,3-d]pyrimidin-7-one]

melting point: 135 to 136 °C
Compound: CCn1c(=O)ccc2cnc(NC3CCCCC3)nc21 [Example 48, 2-Cyclohexylamino-8-ethyl-8H-pyrido[2,3-d]pyrimidin-7-one]

IC50 (Cdk5/p25; Table 1): 165 nM
Compound: O=c1ccc2cnc(Nc3ccccc3)nc2n1-c1ccccc1 [Example 101, 2-Phenylamino-8-phenyl-8H-pyrido[2,3-d]pyrimidin-7-one]

melting point: 220 to 222 °C
Compound: CCn1c(=O)ccc2cnc(Nc3ccc(-n4cccc4)cc3)nc21 [Example 110, 8-Ethyl-2-(4-pyrrol-1-yl-phenylamino)-8H-pyrido[2,3-d]pyrimidin-7-one]

melting point: 155 to 157 °C
Compound: O=c1ccc2cnc(Nc3ccc(N4CCCC(CN5CCOCC5)C4)cc3)nc2n1C1CC2CCC1C2 (stereo not drawn) [Example 263, 8-Bicyclo[2.2.1]hept-2-yl-2-[4-(3-morpholin-4-ylmethyl-piperidin-1-yl)-phenylamino]-8H-pyrido[2,3-d]pyrimidin-7-one]

melting point: 144 to 145 °C
Compound: CC(C)(C)OC(=O)C1CCCN1c1ccc(Nc2ncc3ccc(=O)n(C4CCCCC4)c3n2)cc1 (stereo not drawn) [Example 170, 1-[4-(8-Cyclohexyl-7-oxo-7,8-dihydro-pyrido[2,3-d]pyrimidin-2-ylamino)-phenyl]-pyrrolidine-2-carboxylic acid tert-butyl ester]

IC50 (Cdk5/p25; Table 1): 17 nM
Compound: CC(C)n1c(=O)ccc2cnc(Nc3ccc(N4CCN(C)CC4)cc3)nc21 [Example 60, 8-Isopropyl-2-[4-(4-methylpiperazin-1-yl)-phenylamino]-8H-pyrido[2,3-d]-pyrimidin-7-one]

IC50 (cdk4/D; Table 1, read-out: cdk4/D IC50): 2860 nM
melting point: 95 to 97 °C
IC50 (cdk2/cyclinE; cdk2/E IC50, Table 1): 2630 nM
Compound: CCN(CC)CCOc1ccc(Nc2ncc3ccc(=O)n(CCOCc4ccccc4)c3n2)cc1 [Example 139]
